Source: US20150322051A1, “Macrocyclic picolinamides as fungicides” (Dow AgroSciences LLC, priority 2014, published 2015)
Read-outs that look alike come from different tables or passages of the source.

Key:
[1] = tested on: Mycosphaerella graminicola; anamorph: Septoria tritici (SEPTTR); assay: Leaf blotch of wheat (SEPTTR) whole-plant fungicidal test; assay type: in vivo; settings: Zymoseptoria tritici, topical; for pest or weed control at 121.5 g/ha: low volume (track spray) application, 121.5 g/H; for pest or weed control at 100 ppm: high volume application
Method: (§1) All fungicides were evaluated using the aforementioned method for their activity vs. all target diseases, unless stated otherwise. Wheat leaf blotch and brown rust activity were also evaluated using track spray applications, in which case the fungicides were formulated as EC formulations, containing 0.1% Trycol 5941 in the spray solutions. Wheat plants (variety Yuma) were grown from seed in a greenhouse in 50% mineral soil/50% soil-less Metro mix until the first leaf was fully emerged, with 7-10 seedlings per pot. These plants were inoculated with an aqueous spore suspension of Septoria tritici either prior to or after fungicide treatments. After inoculation the plants were kept in 100% relative humidity (one day in a dark dew chamber followed by two to three days in a lighted dew chamber at 20° C.) to permit spores to germinate and infect the leaf. The plants were then transferred to a greenhouse set at 20° C. for disease to develop. When disease symptoms were fully expressed on the 1st leaves of untreated plants, infection levels were assessed on a scale of 0 to 100 percent disease severity. Percent disease control was calculated using the ratio of disease severity on treated plants relative to untreated plants.

[2] = tested on: Puccinia triticina; synonym: Puccinia recondita f. sp. tritici (PUCCRT); assay: Wheat brown rust (PUCCRT) whole-plant fungicidal test; assay type: in vivo; settings: topical; for pest or weed control at 121.5 g/ha: low volume (track spray) application, 121.5 g/H; for pest or weed control at 100 ppm: high volume application
Method: as §1, with “plants. Wheat plants (variety Yuma) were grown from seed in a greenhouse in 50% mineral soil/50% soil-less Metro mix until the first leaf was fully emerged, with 7-10 seedlings per pot. These plants were inoculated with an aqueous spore suspension of Puccinia triticina either prior to or after fungicide treatments. […] The plants were then transferred to a greenhouse set at 24° C. for disease to develop. Fungicide formulation, application and disease assessment followed the procedures as described in the Example A.” for “plants.”

[3] = 24 h, 1 Day Protectant, read-out: Low Volume activity at 121.5 g/H SEPTTR 1DP (% disease control rating)
[4] = 72 h, 3 Day Curative, read-out: Low Volume activity at 121.5 g/H SEPTTR 3DC (% disease control rating)
[5] = 24 h, 1 Day Protectant, read-out: Low Volume activity at 121.5 g/H PUCCRT 1DP (% disease control rating)
[6] = 72 h, 3 Day Curative, read-out: Low Volume activity at 121.5 g/H PUCCRT 3DC (% disease control rating)
[7] = 24 h, 1 Day Protectant, read-out: High Volume activity at 100 ppm SEPTTR 1DP (% disease control rating)
[8] = 72 h, 3 Day Curative, read-out: High Volume activity at 100 ppm SEPTTR 3DC (% disease control rating)
[9] = 24 h, 1 Day Protectant, read-out: High Volume activity at 100 ppm PUCCRT 1DP (% disease control rating)
[10] = 72 h, 3 Day Curative, read-out: High Volume activity at 100 ppm PUCCRT 3DC (% disease control rating)

Structure (SMILES)	pest or weed control at 121.5 g/ha [1, 3]	pest or weed control at 121.5 g/ha [1, 4]	pest or weed control at 121.5 g/ha [2, 5]	pest or weed control at 121.5 g/ha [2, 6]	pest or weed control at 100 ppm [1, 7]	pest or weed control at 100 ppm [1, 8]	pest or weed control at 100 ppm [2, 9]	pest or weed control at 100 ppm [2, 10]
COc1ccnc(C(=O)N[C@H]2CCC[C@H](Cc3ccc(C(F)(F)F)cc3)[C@@H](CC(C)C)[C@H](C)OC2=O)c1OC(C)=O [Compound 22]	> 70%	< 70%	> 70%	< 70%	–	–	–	–
COc1ccnc(C(=O)N[C@H]2CCC[C@H](Cc3ccc(C(F)(F)F)cc3)[C@@H](CC(C)C)[C@H](C)OC2=O)c1O [Compound 80]	–	–	–	–	> 70%	< 70%	> 70%	< 70%
COc1ccnc(C(=O)N[C@H]2CCC[C@H](Cc3ccccc3)[C@@H](CCC(C)C)[C@H](C)OC2=O)c1OCOC(C)=O [Compound 47]	> 70%	> 70%	> 70%	< 70%	–	–	–	–
COc1ccnc(C(=O)N[C@H]2CCC[C@H](Cc3ccccc3)[C@@H](c3ccccc3)[C@H](C)OC2=O)c1OCOC(C)=O [Compound 52]	> 70%	> 70%	> 70%	< 70%	–	–	–	–
COc1ccnc(C(=O)N[C@H]2CCC[C@H](Cc3ccccc3)[C@@H](CCC(C)C)[C@H](C)OC2=O)c1OCOC(=O)C(C)C [Compound 50]	> 70%	> 70%	> 70%	< 70%	–	–	–	–
COc1ccnc(C(=O)N[C@H]2CCC[C@H](Cc3ccc(Cl)cc3)[C@@H](CC(C)C)[C@H](C)OC2=O)c1O [Compound 76]	–	–	–	–	> 70%	> 70%	> 70%	< 70%
CCC[C@H]1CCC[C@H](NC(=O)c2nccc(OC)c2OCOC(C)=O)C(=O)O[C@@H](C)[C@@H]1Cc1ccc(F)cc1 [Compound 48]	> 70%	> 70%	> 70%	> 70%	–	–	–	–
COc1ccnc(C(=O)N[C@H]2CCC[C@H](Cc3ccccc3)[C@@H](Cc3ccc(OC(F)(F)F)cc3)[C@H](C)OC2=O)c1OCOC(C)=O [Compound 68]	< 70%	< 70%	< 70%	< 70%	–	–	–	–
CCC[C@H]1CCC[C@H](NC(=O)c2nccc(OC)c2O)C(=O)O[C@@H](C)[C@@H]1c1ccccc1 [Compound 91]	–	–	–	–	> 70%	> 70%	> 70%	< 70%
COc1ccnc(C(=O)N[C@H]2CCC[C@H](CCCc3ccccc3)[C@@H](Cc3ccc(OC(F)(F)F)cc3)[C@H](C)OC2=O)c1OCOC(C)=O [Compound 59]	> 70%	< 70%	> 70%	< 70%	–	–	–	–
CCC[C@H]1CCC[C@H](NC(=O)c2nccc(OC)c2OC(C)=O)C(=O)O[C@@H](C)[C@@H]1c1ccccc1 [Compound 55]	> 70%	> 70%	> 70%	> 70%	–	–	–	–
CCOCC(=O)OCOc1c(OC)ccnc1C(=O)N[C@H]1CCC[C@H](CCC(C)C)[C@@H](CCc2ccccc2)[C@H](C)OC1=O [Compound 35]	> 70%	> 70%	> 70%	< 70%	–	–	–	–
COc1ccnc(C(=O)N[C@H]2CCC[C@H](CC3CC3)[C@@H](Cc3ccccc3)[C@H](C)OC2=O)c1O [Compound 94]	> 70%	> 70%	> 70%	< 70%	–	–	–	–
